Test results reported in PubChem BioAssay AID256 (DTP/NCI, 2004).
Where “and” joins values, the source holds several entries; their conditions need not be identical. Equal entries are not always repeated. Inconclusive results and toxic doses are left out.

Tested on: CD2F1 mice, L1210 leukemia ip, survival T/C
Test: NCI In Vivo Anticancer Drug Screen. Data for tumor model L1210 Leukemia (intraperitoneal) in CD2F1 (CDF1) mice
Details: higher = longer survival
In short: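 In this screen, transplantable tumors were grown in mice given either the compound or its vehicle. Results were expressed as the treated measurement relative to the control measurement.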

[1] = endpoint: mean survival time, dose: 100.0 mg/kg/injection, schedule: Q01DX001 (ip), vehicle: saline
[2] = endpoint: mean survival time, dose: 100.0 mg/kg/injection, schedule: Q04DX003 (ip), vehicle: saline
[3] = endpoint: mean survival time, dose: 200.0 mg/kg/injection, schedule: Q01DX001 (ip), vehicle: saline
[4] = endpoint: mean survival time, dose: 200.0 mg/kg/injection, schedule: Q04DX003 (ip), vehicle: saline
[5] = endpoint: mean survival time, dose: 100.0 mg/kg/injection, schedule: Q04DX003 (ip), vehicle: saline with Tween-80
[6] = endpoint: mean survival time, dose: 200.0 mg/kg/injection, schedule: Q04DX003 (ip), vehicle: saline with Tween-80
[7] = endpoint: mean survival time, dose: 100.0 mg/kg/injection, schedule: Q01DX001 (ip), vehicle: saline with Tween-80
[8] = endpoint: mean survival time, dose: 400.0 mg/kg/injection, schedule: Q04DX003 (ip), vehicle: saline with Tween-80
[9] = endpoint: mean survival time, dose: 100.0 mg/kg/injection, schedule: Q01DX009 (ip), vehicle: saline with Tween-80
[10] = endpoint: mean survival time, dose: 200.0 mg/kg/injection, schedule: Q01DX009 (ip), vehicle: saline with Tween-80
[11] = endpoint: mean survival time, dose: 400.0 mg/kg/injection, schedule: Q01DX009 (ip), vehicle: saline with Tween-80
[12] = endpoint: mean survival time, dose: 100.0 mg/kg/injection, schedule: Q04DX002 (ip), vehicle: saline with Tween-80
[13] = endpoint: mean survival time, dose: 200.0 mg/kg/injection, schedule: Q01DX001 (ip), vehicle: saline with Tween-80
[14] = endpoint: mean survival time, dose: 200.0 mg/kg/injection, schedule: Q04DX002 (ip), vehicle: saline with Tween-80
[15] = endpoint: mean survival time, dose: 400.0 mg/kg/injection, schedule: Q01DX001 (ip), vehicle: saline with Tween-80
[16] = endpoint: mean survival time, dose: 400.0 mg/kg/injection, schedule: Q04DX002 (ip), vehicle: saline with Tween-80
[17] = endpoint: mean survival time, dose: 100.0 mg/kg/injection, schedule: Q01DX009 (ip), vehicle: saline
[18] = endpoint: mean survival time, dose: 200.0 mg/kg/injection, schedule: Q01DX009 (ip), vehicle: saline
[19] = endpoint: mean survival time, dose: 400.0 mg/kg/injection, schedule: Q01DX009 (ip), vehicle: saline

CC([NH-])C(C)[NH-].[Cl][Pt+2][Cl] (centres undefined)
T/C (endpoint: mean survival time, dose: 1.56 mg/kg/injection, schedule: Q04DX002 (ip), vehicle: Klucel (hydroxypropylcellulose) (HPC)): 113 % of control | T/C (endpoint: mean survival time, dose: 3.12 mg/kg/injection, schedule: Q04DX002 (ip), vehicle: Klucel (hydroxypropylcellulose) (HPC)): 120 % of control | T/C (endpoint: mean survival time, dose: 12.5 mg/kg/injection, schedule: Q04DX002 (ip), vehicle: Klucel (hydroxypropylcellulose) (HPC)): 166 % of control | T/C (endpoint: mean survival time, dose: 25.0 mg/kg/injection, schedule: Q04DX002 (ip), vehicle: Klucel (hydroxypropylcellulose) (HPC)): 118 % of control and 120 % of control | T/C (endpoint: mean survival time, dose: 50.0 mg/kg/injection, schedule: Q04DX002 (ip), vehicle: Klucel (hydroxypropylcellulose) (HPC)): 89 % of control

O=S(=O)(Cl)c1ccc2cc3ccccc3cc2c1
T/C (endpoint: mean survival time, dose: 50.0 mg/kg/injection, schedule: Q04DX003 (ip), vehicle: saline): 96 % of control | T/C [1]: 94 % of control | T/C [2]: 96 % of control | T/C [3]: 101 % of control | T/C [4]: 102 % of control

O=N/C=C/C(=N/Nc1ccc(C(=O)O)cc1)[N+](=O)[O-]
T/C [2]: 96 % of control | T/C [4]: 96 % of control | T/C (endpoint: mean survival time, dose: 400.0 mg/kg/injection, schedule: Q04DX003 (ip), vehicle: saline): 90 % of control

CC(C)(C)OC(=O)NC(Cc1ccc(OCc2ccccc2)cc1)C(=O)O (centres undefined)
T/C [5]: 95 % of control | T/C [6]: 101 % of control

CCCCCCP(C)(=O)CCCCCC
T/C (endpoint: mean survival time, dose: 25.0 mg/kg/injection, schedule: Q01DX001 (ip), vehicle: saline with Tween-80): 96 % of control | T/C (endpoint: mean survival time, dose: 50.0 mg/kg/injection, schedule: Q01DX001 (ip), vehicle: saline with Tween-80): 97 % of control | T/C [7]: 100 % of control

N/C(=C\C(=O)c1ccccc1)c1ccccc1
T/C [5]: 94 % of control | T/C [6]: 107 % of control | T/C [8]: 100 % of control

O=C(NC(O)C(Cl)(Cl)Cl)C(Cl)(Cl)Cl (centres undefined)
T/C [9]: 89 % of control | T/C [5]: 104 % of control | T/C [10]: 100 % of control | T/C [6]: 105 % of control | T/C [11]: 107 % of control | T/C [8]: 104 % of control

O=c1[nH]cnc2snc(Cl)c12
T/C [7]: 101 % of control | T/C [12]: 92 % of control | T/C [13]: 101 % of control | T/C [14]: 92 % of control | T/C [15]: 100 % of control | T/C [16]: 87 % of control

O=P(OCC(F)(F)F)(OCC(F)(F)F)OCC(F)(F)F
T/C [12]: 98 % of control | T/C [14]: 102 % of control | T/C [16]: 105 % of control

O=C(O)C(C(=O)O)C1C=CCC1 (centres undefined)
T/C (endpoint: mean survival time, dose: 50.0 mg/kg/injection, schedule: Q04DX002 (ip), vehicle: saline with Tween-80): 98 % of control | T/C [12]: 102 % of control | T/C [14]: 87 % of control | T/C [16]: 87 % of control

CCS(=O)(=O)c1c(C(N)=O)ncn1C1OC(CO)C(O)C1O (centres undefined)
T/C (endpoint: median survival time, dose: 9.13 mg/kg/injection, schedule: Q01DX005 (ip), vehicle: saline): 91 % of control | T/C (endpoint: median survival time, dose: 18.25 mg/kg/injection, schedule: Q01DX005 (ip), vehicle: saline): 102 % of control | T/C (endpoint: median survival time, dose: 36.5 mg/kg/injection, schedule: Q01DX005 (ip), vehicle: saline): 102 % of control | T/C (endpoint: median survival time, dose: 73.0 mg/kg/injection, schedule: Q01DX005 (ip), vehicle: saline): 102 % of control | T/C (endpoint: median survival time, dose: 146.0 mg/kg/injection, schedule: Q01DX005 (ip), vehicle: saline): 100 % of control

COc1ccc(C2C3C=CC(C3)C2C(=O)O)cc1 (centres undefined)
T/C [9]: 96 % of control | T/C [5]: 106 % of control | T/C [10]: 96 % of control | T/C [6]: 103 % of control | T/C [11]: 103 % of control | T/C [8]: 95 % of control

CC(=O)NCCc1ccc2c(c1)[nH]c1ccccc12
T/C [1]: 101 % of control | T/C [3]: 100 % of control | T/C (endpoint: mean survival time, dose: 400.0 mg/kg/injection, schedule: Q01DX001 (ip), vehicle: saline): 93 % of control

CC(=O)Oc1ccc2ncccc2c1Cc1c(OC(C)=O)ccc2ncccc12
T/C (endpoint: mean survival time, dose: 75.0 mg/kg/injection, schedule: Q01DX001 (ip), vehicle: saline): 90 % of control | T/C (endpoint: mean survival time, dose: 300.0 mg/kg/injection, schedule: Q01DX001 (ip), vehicle: saline): 91 % of control

OCC(O)C(O)C(O)C(SCc1ccccc1)SCc1ccccc1 (centres undefined)
T/C [7]: 97 % of control | T/C [13]: 93 % of control | T/C [15]: 89 % of control

CCCCCCCCCC[n+]1ccc(C#N)cc1
T/C (endpoint: mean survival time, dose: 9.38 mg/kg/injection, schedule: Q01DX001 (ip), vehicle: saline): 101 % of control | T/C (endpoint: mean survival time, dose: 18.75 mg/kg/injection, schedule: Q01DX001 (ip), vehicle: saline): 103 % of control

Cc1cn(C2CC(OP(=O)(O)OCC3OC(n4cc(C)c(=O)[nH]c4=O)CC3OP(=O)(O)OCC3OC(n4cc(C)c(=O)[nH]c4=O)CC3OP(=O)(O)OCC3OC(n4cc(C)c(=O)[nH]c4=O)CC3OP(=O)(O)OCC3OC(n4ccc(N)nc4=O)C(O)C3O)C(CO)O2)c(=O)[nH]c1=O (centres undefined)
T/C (endpoint: median survival time, dose: 25.0 mg/kg/injection, schedule: Q01DX005 (ip), vehicle: saline): 111 % of control | T/C (endpoint: median survival time, dose: 50.0 mg/kg/injection, schedule: Q01DX005 (ip), vehicle: saline): 114 % of control | T/C (endpoint: median survival time, dose: 100.0 mg/kg/injection, schedule: Q01DX005 (ip), vehicle: saline): 124 % of control

COC1OC(COC(C)=O)C(OC2OC(COC(C)=O)C(OC(C)=O)C(OC(C)=O)C2OC(C)=O)C(OC(C)=O)C1OC(C)=O (centres undefined)
T/C [9]: 98 % of control | T/C [10]: 104 % of control | T/C [11]: 106 % of control

Nc1cccc2[nH]c(=O)c3ccccc3c12
T/C (endpoint: mean survival time, dose: 100.0 mg/kg/injection, schedule: Q01DX001 (ip), vehicle: carboxymethylcellulose (CMC)): 100 % of control | T/C (endpoint: mean survival time, dose: 200.0 mg/kg/injection, schedule: Q01DX001 (ip), vehicle: carboxymethylcellulose (CMC)): 97 % of control | T/C (endpoint: mean survival time, dose: 400.0 mg/kg/injection, schedule: Q01DX001 (ip), vehicle: carboxymethylcellulose (CMC)): 100 % of control

Cc1c(NS(=O)(=O)c2ccccc2)c(C)c(NS(=O)(=O)c2ccccc2)c(C)c1NS(=O)(=O)c1ccccc1
T/C (endpoint: mean survival time, dose: 50.0 mg/kg/injection, schedule: Q04DX003 (ip), vehicle: saline with Tween-80): 92 % of control | T/C [5]: 88 % of control and 93 % of control | T/C [6]: 93 % of control and 94 % of control | T/C [8]: 96 % of control

CC(C)(C)c1cccc(C(C)(C)C)c1O
T/C [17]: 95 % of control | T/C [18]: 94 % of control | T/C [19]: 106 % of control

O=c1oc(-c2ccccc2Cl)nc2cc(Cl)ccc12
T/C [5]: 101 % of control | T/C [6]: 94 % of control

CCCCCCCCCCCC[n+]1c(C)cc(N)c2ccccc21
T/C (endpoint: mean survival time, dose: 1.25 mg/kg/injection, schedule: Q01DX001 (ip), vehicle: other): 103 % of control | T/C (endpoint: mean survival time, dose: 5.0 mg/kg/injection, schedule: Q01DX001 (ip), vehicle: other): 101 % of control

O=C(OCc1ccccc1)C1CCCN1C(=O)C(CSC(c1ccccc1)(c1ccccc1)c1ccccc1)NC(c1ccccc1)(c1ccccc1)c1ccccc1 (centres undefined)
T/C (endpoint: mean survival time, dose: 50.0 mg/kg/injection, schedule: Q01DX009 (ip), vehicle: saline): 97 % of control | T/C [17]: 97 % of control | T/C [18]: 95 % of control | T/C [19]: 95 % of control

CC(C)NC(=O)C1C2CCC(CC2)C1C(=O)NC(C)C (centres undefined)
T/C [5]: 98 % of control | T/C [6]: 98 % of control | T/C [8]: 95 % of control

CC(C)C(=O)Nc1ccc(Cl)cc1
T/C [9]: 100 % of control | T/C [10]: 97 % of control

CC12CCC3C(CCC4CC(OC(=O)Cc5ccc(N(CCCl)CCCl)cc5)CCC43C)C1CCC(=O)N2 (centres undefined)
T/C (endpoint: mean survival time, dose: 0.75 mg/kg/injection, schedule: Q01DX009 (ip), vehicle: saline with Tween-80): 98 % of control | T/C (endpoint: mean survival time, dose: 1.5 mg/kg/injection, schedule: Q01DX009 (ip), vehicle: saline with Tween-80): 102 % of control | T/C (endpoint: mean survival time, dose: 3.0 mg/kg/injection, schedule: Q01DX009 (ip), vehicle: saline with Tween-80): 108 % of control | T/C (endpoint: mean survival time, dose: 6.0 mg/kg/injection, schedule: Q01DX009 (ip), vehicle: saline with Tween-80): 112 % of control | T/C (endpoint: mean survival time, dose: 12.0 mg/kg/injection, schedule: Q01DX009 (ip), vehicle: saline with Tween-80): 122 % of control | T/C (endpoint: median survival time, dose: 3.0 mg/kg/injection, schedule: Q01DX009 (ip), vehicle: saline with Tween-80): 115 % of control | T/C (endpoint: median survival time, dose: 6.0 mg/kg/injection, schedule: Q01DX009 (ip), vehicle: saline with Tween-80): 119 % of control | T/C (endpoint: median survival time, dose: 24.0 mg/kg/injection, schedule: Q01DX009 (ip), vehicle: saline with Tween-80): 166 % of control and 168 % of control | T/C (endpoint: median survival time, dose: 48.0 mg/kg/injection, schedule: Q01DX009 (ip), vehicle: saline with Tween-80): 98 % of control and 111 % of control
